Assay results taken from patent US20060069038A1, “Irreversible caspase-3 inhibitors as active site probes” (priority 2003, published 2006).

Assays:
[1] = biological target: T1, purified recombinant human caspase-3 (Homo sapiens, UniProt P42574); test: Direct [125I]-M808 labeling of purified recombinant human caspase-3; assay type: binding; conditions: FIG. 2A lane 1
T1 construct: Active site shared between large and small caspase subunit
T1 sequence (P42574 29-175 limits assumed): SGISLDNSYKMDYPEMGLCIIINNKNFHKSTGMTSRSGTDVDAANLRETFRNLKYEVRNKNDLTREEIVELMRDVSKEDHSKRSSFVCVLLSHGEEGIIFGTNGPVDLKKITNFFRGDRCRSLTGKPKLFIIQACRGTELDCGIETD
T1 sequence (P42574 176-277 limits assumed): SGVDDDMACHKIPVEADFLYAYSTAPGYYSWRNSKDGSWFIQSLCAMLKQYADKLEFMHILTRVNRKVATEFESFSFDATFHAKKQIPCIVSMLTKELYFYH
Experimental: The determination of caspase activity by [^125I]-M808 labeling was performed by pre-incubating purified recombinant human caspase-3 with indicated amounts of caspase inhibitor (M791) or vehicle (DMSO), for 1 hour at 25° C. in ICE buffer III (50 mM Hepes-KOH pH 7.0, 0.1% CHAPS, 10% sucrose, 2 mM EDTA), supplemented with 5 mM DTT. [^125I]-M808 was added to a final concentration of 1.25 μM and incubated for 5 min at 25° C. Active caspases in tissue or cell extracts were labeled by incubating 60-80 μg of lysate with [^125I]-M808 for 15 minutes at 25° C. Labeling was stopped by addition of Laemli buffer (2% SDS; 0.35 M O-mercaptoethanol; 50 mM Tris-Cl pH 6.8; 10% glycerol; 0.05% bromophenol blue) and by heating at 95° C. for 5 minutes. Caspase labeling in whole cells was performed as following. NT2 cells were plated in 24-well dishes (50 000 cells/well) in DMEM+10% FBS. The next day, media was replaced by media containing camptothecin (5 μg/ml) and the indicated amounts of caspase inhibitors. The culture media was removed after 5 hours of incubation and replaced by 100 μl of fresh media containing 12.5 nM [^125]-M808. After a 1 h incubation at 37° C., the media was removed, the cells were washed once with PBS and lysed in lysis buffer+25 μM M808. Cellular debris was removed by centrifugation at 13000 rpm for 10 min and boiled at 95° C. in Laemli buffer. […]

[2] = system: spectrin cleavage; test: Spectrin cleavage in cultured thymocytes; assay type: cell-based; conditions: Rattus norvegicus, Thymocyte, N. Methot et al., in press, read-out: IC50, inhibition of spectrin cleavage
[3] = biological target: T2, caspase-3 (Homo sapiens, UniProt P42574); test: [125I]-M808 labeling of caspase subunits in apoptotic Jurkat cells with caspase inhibitor; assay type: cell-based; conditions: increasing inhibitor concentration, FIG. 4
T2 construct: endogenous in cells; host or cells: Jurkat cells, apoptosis induced with camptothecin
T2 sequence (P42574 29-175 limits assumed): T1 sequence (P42574 29-175 limits assumed)
T2 sequence (P42574 176-277 limits assumed): T1 sequence (P42574 176-277 limits assumed)
Experimental: Jurkat cells (ATCC # TEB-152) were maintained in RPMI1640 supplemented with 10% FBS, 2 mM L-glutamine and antibiotics (penicillin and streptamycin). Apoptosis was induced on cells (1 million cells/ml) that had been starved for 36 hours in CytoSf4 media (Kemp technologies) by addition of camptothecin (Sigma; 3 μg/ml). NT2 cells (ATCC 3813555) were cultured in DMEM+10% FBS+2 mM L-glutamine and antibiotics. Apoptosis induced with camptothecin (5 μg/ml) in culture media.
The determination of caspase activity by [^125I]-M808 labeling was performed by pre-incubating purified recombinant human caspase-3 with indicated amounts of caspase inhibitor (M791) or vehicle (DMSO), for 1 hour at 25° C. in ICE buffer III (50 mM Hepes-KOH pH 7.0, 0.1% CHAPS, 10% sucrose, 2 mM EDTA), supplemented with 5 mM DTT. [^125I]-M808 was added to a final concentration of 1.25 μM and incubated for 5 min at 25° C. Active caspases in tissue or cell extracts were labeled by incubating 60-80 μg of lysate with [^125I]-M808 for 15 minutes at 25° C. Labeling was stopped by addition of Laemli buffer (2% SDS; 0.35 M O-mercaptoethanol; 50 mM Tris-Cl pH 6.8; 10% glycerol; 0.05% bromophenol blue) and by heating at 95° C. for 5 minutes. Caspase labeling in whole cells was performed as following. NT2 cells were plated in 24-well dishes (50 000 cells/well) in DMEM+10% FBS. […]

Row | labeling of p17 subunit of caspase-3 [1] | IC50 [2] [nM] | Compound | intensity of [125I]-M808-labeled caspase-3 bands (occupancy) [3]
1 | covalently bound | – | COc1ccc(I)cc1CC(=O)N[C@H](C(=O)NC(CC(=O)O)C(=O)CF)C(C)C (stereo partly drawn) [[^125I]-M808, 5-fluoro-3-({N-[(5-iodo-2-methoxyphenyl)acetyl]-L-valyl}amino)-4-oxopentanoic acid] | –
2 | – | 90 | CCCCCN(C)CC(=O)[C@H](CC(=O)O)NC(=O)[C@H](CC)n1cc(C(C)(C)C)nc(NCc2nonc2C)c1=O [Example M867, (3S)-3-({(2S)-2-[5-tert-butyl-3-{[(4-methyl-1,2,5-oxadiazol-3-yl)methyl]amino}-2-oxopyrazin-1(2H)-yl]butanoyl}amino)-5-[methyl(pentyl)amino]-4-oxopentanoic acid] | intensity of the radiolabeled bands decreased as the concentration of M867 increased
